Measured values as given in patent US9980943B2, “Methods of treating muscular dystrophy” (BOARD OF REGENTS OF THE NEVADA SYSTEM OF HIGHER EDUCATION, …, priority 2013, dated 2018).
Like-named read-outs stand apart in the source and are kept apart here.

Experiments:
Format in all cases: cell-based, mouse
[1] = test system: α7 integrin (LacZ reporter in α7βgal+/− myoblasts); test: Myoblast α7+/LacZ integrin FDG assay (Burkin assay in myoblasts, 96-well); details: α7+/LacZ myoblasts, 96-well; for fold induction at 0.5 µM / fold induction at 1 µM / fold induction at 5 µM / fold induction at 10 µM / fold induction at 20 µM / fold induction at 40 µM: Mus musculus, Myoblast, 48 h, read-out: Burkin Assay in Myoblasts, signal relative to DMSO
[2] = test system: α7 integrin (LacZ reporter in α7+/LacZ myotubes); test: Myotube α7 integrin FDG assay (Burkin assay in myotubes, 96-well); details: myotubes; for fold induction at 0.5 µM / fold induction at 1 µM / fold induction at 5 µM / fold induction at 10 µM / fold induction at 20 µM / fold induction at 40 µM: Mus musculus, Myotube, read-out: Burkin Assay in Myotubes, α7 integrin LacZ reporter signal relative to DMSO
[3] = test system: β-galactosidase in CMV-LacZ C2C12 myotubes; test: CMV-LacZ secondary screen in C2C12 myotubes (β-Gal stabilizing assay); details: C2C12 CMV-LacZ myotubes, fold relative to DMSO; for fold induction at 5 µM / fold induction at 10 µM / fold induction at 20 µM / fold induction at 40 µM: Mus musculus
In short: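 β-gal stabilization was measured in C2C12 myoblasts or myotubes stably transfected with a CMV-driven LacZ construct, using the FDG β-gal assay. Compounds were tested in dose-response at 0.5, 1, 5, 10, 20 and 40 μM, with two replicates per point.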

Row | SMILES | fold induction at 0.5 µM ([1]; 0.5 uM) | fold induction at 1 µM ([1]; 1 uM) | fold induction at 5 µM ([1]; 5 uM) | fold induction at 10 µM ([1]; 10 uM) | Burkin Assay in Myoblasts, signal relative to DMSO ([1]; 0.5 uM) | Burkin Assay in Myoblasts, signal relative to DMSO ([1]; 1 uM) | Burkin Assay in Myoblasts, signal relative to DMSO ([1]; 5 uM) | Burkin Assay in Myoblasts, signal relative to DMSO ([1]; 10 uM) | Burkin Assay in Myoblasts, signal relative to DMSO ([1]; 20 uM) | Burkin Assay in Myoblasts, signal relative to DMSO ([1]; 40 uM) | Burkin Assay in Myotubes, α7 integrin LacZ reporter signal relative to DMSO ([2]; 0.5 uM) | Burkin Assay in Myotubes, α7 integrin LacZ reporter signal relative to DMSO ([2]; 1 uM) | Burkin Assay in Myotubes, α7 integrin LacZ reporter signal relative to DMSO ([2]; 5 uM) | Burkin Assay in Myotubes, α7 integrin LacZ reporter signal relative to DMSO ([2]; 10 uM) | Burkin Assay in Myotubes, α7 integrin LacZ reporter signal relative to DMSO ([2]; 20 uM) | Burkin Assay in Myotubes, α7 integrin LacZ reporter signal relative to DMSO ([2]; 40 uM) | CMV-LACZ in Myotubes, signal relative to DMSO ([3]; 5 uM) | CMV-LACZ in Myotubes, signal relative to DMSO ([3]; 10 uM) | CMV-LACZ in Myotubes, signal relative to DMSO ([3]; 20 uM) | CMV-LACZ in Myotubes, signal relative to DMSO ([3]; 40 uM) | further results
1 | COc1cc(C)c(NC(=O)COc2ccc3c(c2)OCO3)cc1C [MLS001223425-01] | 1.06 | 1.08 | 1.06 | 1.15 | – | – | – | – | – | – | – | – | – | – | – | – | – | – | – | – | fold induction at 20 µM ([1]; 20 uM): 1.22; fold induction at 40 µM ([1]; 40 uM): 1.13; fold induction at 0.5 µM ([2]; 0.5 uM): 1.08; fold induction at 1 µM ([2]; 1 uM): 1.22; fold induction at 5 µM ([2]; 5 uM): 0.914; fold induction at 10 µM ([2]; 10 uM): 1.38; fold induction at 20 µM ([2]; 20 uM): 1.14; fold induction at 40 µM ([2]; 40 uM): 1.18; fold induction at 5 µM ([3]; C2C12, read-out: CMV-LACZ in Myotubes, signal relative to DMSO, 5 uM): 0.956; fold induction at 10 µM ([3]; C2C12, read-out: CMV-LACZ in Myotubes, signal relative to DMSO, 10 uM): 1.04; fold induction at 20 µM ([3]; C2C12, read-out: CMV-LACZ in Myotubes, signal relative to DMSO, 20 uM): 0.979; fold induction at 40 µM ([3]; C2C12, read-out: CMV-LACZ in Myotubes, signal relative to DMSO, 40 uM): 1.01
2 | O=c1nc(C2CCN(S(=O)(=O)c3ccc4c(c3)OCCO4)CC2)nc2n(Cc3c(F)cccc3Cl)[nH]nc1-2 [MLS001223482-01] | 1.06 | 1.09 | 1.01 | 1.02 | – | – | – | – | – | – | – | – | – | – | – | – | – | – | – | – | fold induction at 20 µM ([1]; 20 uM): 1.29; fold induction at 40 µM ([1]; 40 uM): 0.98; fold induction at 0.5 µM ([2]; 0.5 uM): 1.06; fold induction at 1 µM ([2]; 1 uM): 1.15; fold induction at 5 µM ([2]; 5 uM): 1.27; fold induction at 10 µM ([2]; 10 uM): 1.53; fold induction at 20 µM ([2]; 20 uM): 1.13; fold induction at 40 µM ([2]; 40 uM): 0.967; fold induction at 5 µM ([3]; 5 uM, read-out: CMV-LACZ in Myotubes, signal relative to DMSO): 0.907; fold induction at 10 µM ([3]; 10 uM, read-out: CMV-LACZ in Myotubes, signal relative to DMSO): 0.793; fold induction at 20 µM ([3]; 20 uM, read-out: CMV-LACZ in Myotubes, signal relative to DMSO): 0.858; fold induction at 40 µM ([3]; 40 uM, read-out: CMV-LACZ in Myotubes, signal relative to DMSO): 0.809
3 | CC(C)(C)n1cnc2cc(NC(=O)c3ccco3)ccc21 [MLS001223567-01] | – | – | – | – | 1.044 | 1.082 | 0.9608 | 0.9203 | 0.8579 | 0.864 | 0.9533 | 0.9978 | 0.8636 | 0.924 | 0.9991 | 0.9931 | 1.002 | 0.8931 | 1.241 | 1.012 | –
4 | CC(=O)Nc1ccc(N(C(=O)c2cnccn2)C(C(=O)NC2CCCCC2)c2ccc(F)cc2)cc1 (centres unmarked) [MLS001225507-01] | – | – | – | – | 1.0374 | 0.9444 | 0.9036 | 0.8292 | 0.8685 | 0.888 | 0.9321 | 0.6741 | 1.013 | 1.002 | 1.175 | 0.9539 | 1.04 | 0.994 | 0.8655 | 0.8805 | –
5 | O=C1CCc2cc(S(=O)(=O)Nc3ccc(C(F)(F)F)cc3)cc3c2N1CC3 [MLS001237320-01] | – | – | – | – | 0.9733 | 0.9848 | 0.9145 | 0.8495 | 0.9287 | 0.8187 | 0.9879 | 1.055 | 1.035 | 0.6554 | 0.9912 | 0.9787 | 0.9582 | 0.7569 | 0.9895 | 1.082 | –
